This data set is described as follows: molar enthalpy of vaporization or sublimation. The settings on record: 298.15 K; Liquid; calvet microcalorimetry.

We go through two compounds from the NIST ThermoML archive (doi:10.1021/je4007162).

Numbers after ± are expanded uncertainties.

`C1CSCCN1` [thiomorpholine]: the molar enthalpy turned out to be 12.9 ± 0.717 kcal/mol. With `C1COCCN1` [tetrahydro-1,4-oxazine] the figure was 11.1 ± 0.191 kcal/mol.
